Reference: ChEMBL document CHEMBL5390231, “Development of small molecule inhibitors targeting RNA helicase DHX33 as anti-cancer agents” (Bioorg Med Chem Lett, 2023)

How the values were obtained:
[1] = test system: U-251; experiment: Antiproliferative activity against human U-251MG cells overexpressing DHX33 assessed as inhibition of cell growth measured after 48 hrs by CCK-8 assay; assay type: functional, cell-based; conditions: U-251, 48 h
[2] = molecular target: T1, Probable ATP-dependent RNA helicase DHX35 (Homo sapiens, UniProt Q9H5Z1); experiment: Inhibition of N-terminal thioredoxin-tagged human recombinant DHX35 transformed in Escherichia coli BL21(DE3)pLysS cells
T1 sequence (Q9H5Z1 whole entry): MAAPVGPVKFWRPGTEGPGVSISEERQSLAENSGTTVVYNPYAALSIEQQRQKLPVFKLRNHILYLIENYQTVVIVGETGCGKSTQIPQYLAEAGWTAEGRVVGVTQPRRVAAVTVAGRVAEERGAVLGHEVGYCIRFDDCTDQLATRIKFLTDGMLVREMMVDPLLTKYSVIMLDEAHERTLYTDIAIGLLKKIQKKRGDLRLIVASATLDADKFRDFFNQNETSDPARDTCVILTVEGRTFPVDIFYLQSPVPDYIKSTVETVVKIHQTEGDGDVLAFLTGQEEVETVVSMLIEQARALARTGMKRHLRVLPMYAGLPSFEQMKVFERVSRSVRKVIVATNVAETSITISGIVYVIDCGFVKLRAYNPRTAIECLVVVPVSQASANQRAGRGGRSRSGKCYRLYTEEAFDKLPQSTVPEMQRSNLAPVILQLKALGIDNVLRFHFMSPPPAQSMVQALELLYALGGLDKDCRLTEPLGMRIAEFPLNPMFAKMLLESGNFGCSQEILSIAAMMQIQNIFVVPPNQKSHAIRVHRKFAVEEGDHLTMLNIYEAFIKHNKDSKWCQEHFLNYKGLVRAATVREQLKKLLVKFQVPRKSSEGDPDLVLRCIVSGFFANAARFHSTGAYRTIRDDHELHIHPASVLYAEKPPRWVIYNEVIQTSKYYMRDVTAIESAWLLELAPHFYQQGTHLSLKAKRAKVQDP

[3] = molecular target: T2, Putative pre-mRNA-splicing factor ATP-dependent RNA helicase DHX32 (Homo sapiens, UniProt Q7L7V1); experiment: Inhibition of N-terminal thioredoxin-tagged human recombinant DHX32 transformed in Escherichia coli BL21(DE3)pLysS cells
T2 sequence (Q7L7V1 whole entry): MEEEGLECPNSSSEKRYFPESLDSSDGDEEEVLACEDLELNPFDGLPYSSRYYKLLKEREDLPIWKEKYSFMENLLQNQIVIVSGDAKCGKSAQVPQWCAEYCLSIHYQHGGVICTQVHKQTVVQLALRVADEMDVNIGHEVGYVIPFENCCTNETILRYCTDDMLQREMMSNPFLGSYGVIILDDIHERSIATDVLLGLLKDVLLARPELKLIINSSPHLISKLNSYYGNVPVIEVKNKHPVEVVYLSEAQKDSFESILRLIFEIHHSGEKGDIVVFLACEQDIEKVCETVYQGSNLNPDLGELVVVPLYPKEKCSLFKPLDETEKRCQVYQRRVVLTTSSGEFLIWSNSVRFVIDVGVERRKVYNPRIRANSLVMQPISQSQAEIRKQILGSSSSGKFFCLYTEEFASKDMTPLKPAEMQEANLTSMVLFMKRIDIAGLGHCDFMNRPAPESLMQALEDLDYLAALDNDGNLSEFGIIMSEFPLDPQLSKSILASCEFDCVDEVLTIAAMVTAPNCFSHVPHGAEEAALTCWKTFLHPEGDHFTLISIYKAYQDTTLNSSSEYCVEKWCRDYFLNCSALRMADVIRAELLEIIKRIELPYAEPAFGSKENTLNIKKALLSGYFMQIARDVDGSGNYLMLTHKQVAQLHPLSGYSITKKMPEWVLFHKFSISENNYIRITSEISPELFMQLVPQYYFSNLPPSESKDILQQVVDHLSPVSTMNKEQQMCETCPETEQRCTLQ

[4] = molecular target: ATP-dependent RNA helicase DHX15 (Homo sapiens, UniProt O43143); experiment: Inhibition of N-terminal thioredoxin-tagged human recombinant DHX15 transformed in Escherichia coli BL21(DE3)pLysS cells
ATP-dependent RNA helicase DHX15, sequence (O43143 whole entry): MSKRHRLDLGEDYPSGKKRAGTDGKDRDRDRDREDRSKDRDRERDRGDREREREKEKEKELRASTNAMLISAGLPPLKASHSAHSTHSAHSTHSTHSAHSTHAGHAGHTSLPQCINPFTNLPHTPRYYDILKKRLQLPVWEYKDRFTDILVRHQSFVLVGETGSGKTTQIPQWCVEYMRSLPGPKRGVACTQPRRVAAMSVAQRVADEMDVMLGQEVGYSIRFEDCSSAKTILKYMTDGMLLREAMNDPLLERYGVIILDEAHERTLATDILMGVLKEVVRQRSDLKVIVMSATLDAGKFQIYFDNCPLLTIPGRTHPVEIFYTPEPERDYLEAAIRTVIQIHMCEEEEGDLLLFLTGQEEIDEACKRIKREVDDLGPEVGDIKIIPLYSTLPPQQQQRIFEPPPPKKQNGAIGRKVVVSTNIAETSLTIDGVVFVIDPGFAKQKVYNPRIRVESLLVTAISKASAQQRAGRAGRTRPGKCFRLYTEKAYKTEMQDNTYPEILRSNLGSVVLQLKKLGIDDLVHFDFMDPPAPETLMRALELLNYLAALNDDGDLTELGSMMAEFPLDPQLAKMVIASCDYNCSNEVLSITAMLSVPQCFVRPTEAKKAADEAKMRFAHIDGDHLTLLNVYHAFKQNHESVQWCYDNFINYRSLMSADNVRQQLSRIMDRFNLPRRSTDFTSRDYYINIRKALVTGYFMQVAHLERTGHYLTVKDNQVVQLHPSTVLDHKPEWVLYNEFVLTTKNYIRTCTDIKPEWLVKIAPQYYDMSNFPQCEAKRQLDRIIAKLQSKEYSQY

[5] = molecular target: T3, Probable ATP-dependent RNA helicase DDX6 (Homo sapiens, UniProt P26196); experiment: Inhibition of N-terminal thioredoxin-tagged human recombinant DDX6 transformed in Escherichia coli BL21(DE3)pLysS cells
T3 sequence (P26196 whole entry): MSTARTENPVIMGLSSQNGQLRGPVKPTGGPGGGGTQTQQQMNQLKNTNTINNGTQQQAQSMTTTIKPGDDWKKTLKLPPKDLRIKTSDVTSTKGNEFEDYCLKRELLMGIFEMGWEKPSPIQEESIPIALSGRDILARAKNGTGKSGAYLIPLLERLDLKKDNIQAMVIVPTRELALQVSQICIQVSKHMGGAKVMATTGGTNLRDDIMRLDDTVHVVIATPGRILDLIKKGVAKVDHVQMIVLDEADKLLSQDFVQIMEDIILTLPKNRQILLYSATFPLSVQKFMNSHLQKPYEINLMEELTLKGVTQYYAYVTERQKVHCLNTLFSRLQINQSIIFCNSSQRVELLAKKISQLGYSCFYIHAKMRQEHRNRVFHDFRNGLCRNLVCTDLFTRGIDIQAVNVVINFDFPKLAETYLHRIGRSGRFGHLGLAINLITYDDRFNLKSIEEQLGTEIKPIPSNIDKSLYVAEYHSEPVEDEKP

[6] = Microsomal stability in human liver microsome assessed as intrinsic clearance; assay type: ADME; conditions: liver microsomes, read-out: CLH
[7] = molecular target: T4, Probable ATP-dependent RNA helicase DDX59 (Homo sapiens, UniProt Q5T1V6); experiment: Inhibition of C-terminal 6xHis-tagged human recombinant DDX59 transformed in Escherichia coli BL21(DE3)pLysS cells
T4 sequence (Q5T1V6 whole entry): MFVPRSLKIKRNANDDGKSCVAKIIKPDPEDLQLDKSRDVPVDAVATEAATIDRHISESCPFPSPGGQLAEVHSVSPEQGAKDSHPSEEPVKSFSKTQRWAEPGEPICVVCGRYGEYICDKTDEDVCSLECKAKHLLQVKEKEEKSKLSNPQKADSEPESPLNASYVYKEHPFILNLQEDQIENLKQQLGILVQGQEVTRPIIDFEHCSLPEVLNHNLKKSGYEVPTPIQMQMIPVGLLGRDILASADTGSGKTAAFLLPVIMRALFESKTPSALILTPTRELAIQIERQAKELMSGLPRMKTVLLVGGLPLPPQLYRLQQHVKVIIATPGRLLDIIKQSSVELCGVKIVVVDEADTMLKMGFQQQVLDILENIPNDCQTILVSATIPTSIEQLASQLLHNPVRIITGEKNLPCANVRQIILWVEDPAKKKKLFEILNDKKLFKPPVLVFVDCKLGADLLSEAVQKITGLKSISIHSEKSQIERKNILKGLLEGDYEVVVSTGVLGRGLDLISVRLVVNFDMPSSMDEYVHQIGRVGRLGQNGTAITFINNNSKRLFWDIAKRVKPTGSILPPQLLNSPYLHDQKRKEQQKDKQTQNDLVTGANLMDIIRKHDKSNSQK

Work on `COc1ccc2nc(NC(=O)c3cc(C)n(-c4sc(C)cc4C#N)c3C)[nH]c2c1` yielded an IC50 [1] of 0.02 µM, an IC50 [2] of 117 µM and an IC50 [3] greater than 100 µM. It also gave an IC50 [4] of 6.3 µM, an IC50 [5] greater than 100 µM and a CLint scaled [6] of 22.4 mL/min/kg. It also gave an IC50 [7] greater than 100 µM.
